Results as given in patent publication US20230235289A1, “METHOD FOR FIBROBLAST REJUVENATION BY MECHANICAL REPROGRAMMING AND REDIFFERENTIATION” (Paul Scherrer Institut, priority 2020, published 2023).

Legend:
FC (3T3 clumps) [1] = assay: H3K9ac immunofluorescence; assay type: cell-based, mouse; details: TSA-treated FC compared to untreated FC
Procedure: (§1) Cells embedded in Collagen-I gel were fixed with 4% Paraformaldehyde (Sigma) in PBS buffer (pH 7.4) for 25 min, followed by washing with PBS+100 mM glycine buffer (5 min×3). Cells were permeabilized using 0.5% Triton (Sigma-Aldrich) in PBS for 20 min, followed by washing with PBS-glycine buffer (5 min×3). After that, cells were blocked with 10% goat serum (ThermoFisher Scientific) in IF wash buffer (PBS+0.2% Triton+0.2% tween 20) for 3 h at room temperature. Next, cells were incubated overnight with different primary antibodies diluted in blocking buffer, followed by washing with IF wash buffer (15 min×3). […] Cell nuclei were stained with NucBlue Live Ready Probes (Molecular Probes; Thermo Fisher Scientific) in PBS for 10 min at room temperature, and filamentous actin was labeled using phalloidin Alexa Fluor 488 or 568 (1:100; Molecular Probes; Thermo Fisher Scientific) for 45 min.
(§2) Fluorescent images of 3D spheroids and cells embedded in 3D Collagen-I gel were acquired by using Nikon AIR laser scanning confocal microscope (Nikon Instruments Inc, Japan), at either 20× magnification (Plan Apo 20× ELWD, NA 0.8) or 63× magnification (1.25 NA oil objective) with identical acquisition settings. […] The sprouting length of each spheroid embedded in 3D collagen matrix was measured from the large field fluorescent micrograph of actin using AngioTools software.

FC (3T3 clumps) [2] = assay: Nuclear dynamics by time-lapse confocal microscopy of Hoechst 33342 stained nuclei; assay type: cell-based, mouse; details: TSA-treated FC compared to control FC
Procedure: Nuclear dynamics were analyzed from the decorrelation of the nuclear images in time as described previously(37). Time-lapse live-imaging of nucleus stained with Hoechst 33342 (ThermoFisher Scientific) was done in confocal mode with time intervals of one minute for up to 32 minutes in PR, FC and FC+TSA conditions. One Pearson correlation coefficient (PCC) value was calculated from two lists of pixel intensity of the same nucleus captured in different time points with a certain time lag. For each cell, one PCC curve was drawn which connecting all PCCs (as y) with the increasing time lags (as x) as represented in dim color in FIG. 5A. The mean PCC curves for all cells in each condition, were drawn in bright color in FIG. 5A. The mean PCC curves in each condition were fitted by equation y=(1−α)+α exp(−t/τ)−η, where y refers to PCC value, t is time lags, fitting parameter α is drop rate, τ is time constant, η is noise.

[3] = tested on: FC embedded in 3D collagen matrix (FCG); assay: pMLC immunofluorescence of sprouted cells in 3D collagen matrix; assay type: cell-based, mouse
Procedure: as §1, §2

[4] = tested on: RF embedded in fibrillary collagen matrix; assay: Collagen fibre remodeling/stiffening by matrix-embedded fibroblasts (immunostained collagen); assay type: cell-based, mouse; details: for collagen fiber stiffening: addition to spheroids sprouting in collagen matrix
From the text: In order to characterize these RF in vitro, one compared the gel contraction abilities of cells derived from PR spheroids or from FC, both of which were equally embedded in the 3D collagen matrix. […] Fibroblasts are known to exert mechanical forces on the extracellular matrix surrounding them. […] Both RF and FCG embedded in fibrillary collagen matrix were able to remodel collagen fibrils into thicker bundles (FIG. 3F).
Cells embedded in Collagen-I gel were fixed with 4% Paraformaldehyde (Sigma) in PBS buffer (pH 7.4) for 25 min, followed by washing with PBS+100 mM glycine buffer (5 min×3). Cells were permeabilized using 0.5% Triton (Sigma-Aldrich) in PBS for 20 min, followed by washing with PBS-glycine buffer (5 min×3). After that, cells were blocked with 10% goat serum (ThermoFisher Scientific) in IF wash buffer (PBS+0.2% Triton+0.2% tween 20) for 3 h at room temperature. Next, cells were incubated overnight with different primary antibodies diluted in blocking buffer, followed by washing with IF wash buffer (15 min×3). Cells were then incubated with corresponding fluorescent-labeled secondary antibodies diluted in 5% goat serum in IF wash buffer for 3 h at room temperature. Cell nuclei were stained with NucBlue Live Ready Probes (Molecular Probes; Thermo Fisher Scientific) in PBS for 10 min at room temperature, and filamentous actin was labeled using phalloidin Alexa Fluor 488 or 568 (1:100; Molecular Probes; Thermo Fisher Scientific) for 45 min.
Fluorescent images of 3D spheroids and cells embedded in 3D Collagen-I gel were acquired by using Nikon AIR laser scanning confocal microscope (Nikon Instruments Inc, Japan), at either 20× magnification (Plan Apo 20× ELWD, NA 0.8) or 63× magnification (1.25 NA oil objective) with identical acquisition settings. In the Z dimension, each spheroid and 3D Collagen-I gel was scanned up to a depth of 50 μm, with a step size of 1 to 5 μm. Confocal images of either 512×512 or 1024×1024 pixels were obtained with an XY optical resolution of 0.42 μm or 0.21 μm, respectively. Time lapse imaging was done in confocal mode for up to 60 min and 18 h with 60 s and 30 m time intervals, respectively. Bright-field images were acquired using the EVOS FL Cell Imaging System (Thermo Fisher Scientific). For gel contraction assay, images of collagen gel at different days of cell growth were acquired with a mobile camera at a fixed magnification. The fluorescence intensity was measured for each protein in its respective channel and the number of gH2Ax foci per nucleus was determined using custom-written code in Fiji (NI) MATLAB (Mathworks) and IMARIS8. The sprouting length of each spheroid embedded in 3D collagen matrix was measured from the large field fluorescent micrograph of actin using AngioTools software.

[5] = tested on: 6 day-old spheroids of NIH3T3 mouse embryonic fibroblasts; assay: Cell sprouting from partially reprogrammed spheroids in 3D collagen matrix (AngioTools); assay type: cell-based; details: addition to spheroids sprouting in collagen matrix
From the text: These 6 day-old spheroids were embedded in collagen gels and cultured for at least 2 days (FIG. 1A). Within few hours, cells originating from the spheroids progressively invaded the collagen matrix and migrated either individually as unicellular sprouts (single cells) or collectively as complex capillary-like structures (FIG. 1B). In addition to cell invasion, morphological modifications in the spheroid core itself were detected. While the spheroids initially appeared as a compact structure, subsequent cell migration induced spheroid expansion occurred and led to breaches in the spheroid core. […]
as §2, with “The fluorescence intensity was measured for each protein in its respective channel and the number of gH2Ax foci per nucleus was determined using custom-written code in Fiji (NI) MATLAB (Mathworks) and IMARIS8. The” for “The”

CC(/C=C/C(=O)NO)=C\[C@@H](C)C(=O)c1ccc(N(C)C)cc1 [TSA, Trichostatin A]
H3K9ac levels (FC (3T3 clumps) [1]): significant increase | nuclear dynamics (FC (3T3 clumps) [2]): increase in nuclear dynamics | level of pMLC ([3]; TSA-treated FCG compared to untreated FCG and RF): higher level | contractility upon exposure to ECM-related cues ([3]; fibroblasts treated with the HDAC inhibitor): increased contractility

C[C@@H](N)[C@H]1CC[C@H](C(=O)Nc2ccncc2)CC1 [Y-27632]
remodeling of collagen fibrils around RF ([4]; 25 μM): very less or no remodeling

Cc1ccc2c(c1)C(=O)C1(O)CCN(c3ccccc3)C1=N2 (stereo not shown) [blebbistatin]
average sprouting length [5]: significant reduction | collagen fiber stiffening [4]: drop

C=C1[C@@H](C)[C@H]2[C@H](Cc3ccccc3)NC(=O)[C@]23[C@H](OC(C)=O)/C=C/[C@@](C)(O)C(=O)[C@@H](C)C/C=C/[C@H]3[C@@H]1O [cytoD, cytochalasin D]
average sprouting length [5]: significant reduction | remodeling of collagen fibrils around RF ([4]; 4 μM): very less or no remodeling | collagen fiber stiffening [4]: drop
